The subject of assay [1] is HUVEC cells. Kind of assay: Uptake of fluorescently labeled peptide-BSA conjugate into endothelial cell (quantitative analysis). As to conditions: fluorescein-labeled peptide-BSA conjugate, peptide 10 μM, 8 hours, 37° C.; fluorescence recovered from cells. It is filed as cell-based, human. The method, then: (§1) In 1 ml of a 50 mM sodium bicarbonate solution was dissolved 20 mg of BSA, to prepare a 0.3 mM solution. To the total amount (1 ml) of this solution was added 20 μl of a 250 mM solution (final concentration: 5 mM) of NHS-PEO12-maleimide (catalog No. 22112, manufactured by Pierce) which is a divalent crosslinking reagent having a PEG chain spacer, followed by a reaction at room temperature for 1 hour. After the reaction, 100 μl of the solution was desalted using a spin column (Bio-Rad, Micro Bio-Spin Column 30) equilibrated by washing with 500 μl of a 0.1 M sodium phosphate buffer (pH 7.0) three times in advance. An unreacted crosslinking reagent was separated and removed. After desalting, 50 μl of the solution was mixed with an equivalent amount of a 0.1 M sodium phosphate buffer (pH 7.0) to dilute, and to 100 μl of the resulting solution was added 10 μl of a fluorescein-labeled peptide solution in DMSO, followed by a reaction at room temperature for 1 hour. The total amount of the solution after the reaction was desalted using a spin column (Bio-Rad, Micro Bio-Spin Column 30) equilibrated by washing with 500 μl of PBS three times in advance, thereby, an unbound peptide was separated and removed, to obtain a peptide-BSA conjugate solution.
On a 96-well microplate (Corning No. 3595) were seeded 100 μl of 1×10^5/ml HUVEC cells, and cells were cultured under the condition of 37° C. and 5% CO2 for 2 days. Upon use, cells were washed with 150 μl of a medium (EBM-2 medium containing a 2% fetal bovine serum (Cambrex Bio Science, containing a growth factor)) once, and 50 μl of the same medium, and 50 μl of a solution obtained by diluting the peptide-BSA conjugate (SEQ ID Nos. 12, 13, 16, and 77) prepared in Example 3 (2) with a medium to the peptide concentration of 20 μM were sequentially added, followed by culturing under the condition of 37° C. and 5% CO2 for 8 hours (the peptide concentration at reaction with cells was 10 μM). Recovery of the peptide-BSA conjugate bound to, or taken into cells after the reaction, and fluorescence quantitation were performed in the same method as in Example 3.

Assay [2] relates to HUVEC cells. As to the kind of experiment: Uptake of fluorescently labeled peptide-BSA conjugate (image analysis). The note with it: peptide 10 μM, 8 hours. It is filed as cell-based, human. The method, then: as §1
A 96-well microplate (glass bottom plate, Nunc No. 164588) was treated with 100 μl of a 1% acidic collagen solution for 10 minutes in advance, and washed with 120 μl of PBS once, and 100 μl of 1×10^5/ml of HUVEC cells were seeded, and cultured under the condition of 37° C. and 5% CO2 for 2 days. Upon use, cells were washed with 150 μl of a medium (EBM-2 medium containing a 2% fetal bovine serum (Cambrex Bio Science, containing a growth factor)) once, and 50 μl of the same medium, and 50 μl of a solution obtained by diluting the peptide-BSA conjugate (SEQ ID Nos. 12, 13, 16, and 77) prepared in Example 3 (2) with a medium to the peptide concentration of 20 μM were sequentially added, followed by culturing under the condition of 37° C. and 5% CO2 for 8 hours (the peptide concentration at reaction with cells was 10 μM). Cells after the reaction were observed using a confocal laser microscope (Olympus FV1000).

The subject of assay [3] is HUVEC cells. Kind of assay: Uptake of fluorescently labeled peptide-multiarm PEG conjugate into endothelial cell (image analysis scoring). The assay is classed as cell-based, human. The note with it: fluorescein-labeled multiarm PEG-peptide conjugate, peptide 16 μM, 8 hours. The arrangement: key: Score 0: No fluorescent luminescent spot in a cell is recognized.; Score 1: Faint fluorescent luminescent spots are recognized in a cell.; Score 2: Fluorescent luminescent spots clearer than in score 1 are recognized in a cell.; Score 3: Many luminescent spots further brighter than in score 2 are seen in a cell. The method, then: (§2) PEG having four maleimide groups per molecule (Multiarm PEG, SUNBRIGHT PTE-200MA, manufactured by NOF Corporation) was dissolved in DMSO at the concentration of 2 mM, 20 μl of this solution, and an equivalent amount (20 μl) of a 10 mM fluorescein-labeled peptide solution in DMSO were mixed to react them at room temperature for 2 hours. After 60 μl of PBS was added to dilute the mixture to the total amount of 100 μl, desalting treatment was performed using a spin column (Bio-Rad, Micro Bio-Spin Column 30) equilibrated by washing with 500 μl of PBS three times in advance, and an unbound peptide was separated and removed to obtain a peptide-multiarm PEG conjugate.
A 96-well microplate (glass bottom plate, Nunc No. 164588) was treated with 100 μl of a 1% acidic collagen solution for 10 minutes in advance, and washed with 120 μl of PBS once, and 100 μl of 1×10^5/ml of HUVEC cells were seeded, and cultured under the condition of 37° C. and 5% CO2 for 2 days. Upon use, cells were washed with 150 μl of a medium (EBM-2 medium containing a 2% fetal bovine serum (Cambrex Bio Science, containing a growth factor)) once, and 50 μl of the same medium, and 50 μl of a solution obtained by diluting the multiarm PEG-peptide conjugate (a peptide of SEQ ID No. 12 and a partial peptide thereof (SEQ ID Nos. 17, 18, and 19), a peptide of SEQ ID No. 13 and a partial peptide thereof (SEQ ID Nos. 15, 20, and 21), and a random sequence peptide (SEQ ID No. 77)) prepared in Example 3 (1) with a medium to the peptide concentration of 32 μM were sequentially added, followed by culturing under the condition of 37° C. and 5% CO2 for 8 hours (the peptide concentration at reaction with cells was 16 μM). The cell after the reaction was observed using a confocal laser microscope (Olympus FV1000). The amount of fluorescent luminescent spots derived from the peptide recognized in a cell was scored as follows.
Score 0: No fluorescent luminescent spot in a cell is recognized. Score 1: Faint fluorescent luminescent spots are recognized in a cell. Score 2: Fluorescent luminescent spots clearer than in score 1 are recognized in a cell. Score 3: Many luminescent spots further brighter than in score 2 are seen in a cell.

Assay [4] relates to HUVEC cells. As to the kind of experiment: Uptake of fluorescently labeled peptide-PEG conjugate into endothelial cell (quantitative analysis). It is filed as cell-based, human. As to conditions: fluorescein-labeled peptide-multiarm PEG conjugate, peptide 10 μM, 8 hours, 37° C.; fluorescence recovered from cells, added conjugate = 100%. The method, then:
as §2
A 96-well microplate (glass bottom plate, Nunc No. 164588) was treated with 100 μl of a 1% acidic collagen solution for 10 minutes in advance, and washed with 120 μl of PBS once, and 1×10^5/ml of 100 μl of HUVEC cells were seeded, and cultured under the condition of 37° C. and 5% CO2 for 2 days. Upon use, cells were washed with 150 μl of a medium (EBM-2 medium containing a 2% fetal bovine serum (Cambrex Bio Science, containing a growth factor)) once, and 50 μl of the same medium, and 50 μl of a solution obtained by diluting a peptide-multiarm PEG conjugate (SEQ ID Nos. 12, 13, 16 (partial sequence of SEQ ID No. 14), and 77) prepared in Example 3 (1) with a medium to the peptide concentration of 20 μM were sequentially added, followed by culturing under the condition of 37° C. and 5% CO2 for 8 hours (the peptide concentration at reaction with cells was 10 μM). Cells after culturing were washed with 150 μl of a HBSS(+) buffer three times to remove an unbound peptide-multiarm PEG conjugate, and 100 μl of HBSS(+) containing 1% SDS to extract a peptide bound to, or taken into cells. The extract was transferred to another 96-well microplate (black plate), and fluorescence at an excitation wavelength of 490 nm and a detection wavelength of 530 nm was measured using a fluorophotometer. Letting the fluorescent intensity of each of the added peptide-multiarm PEG conjugate to be 100%, the amount (%) of uptake of the peptide into cells was calculated from the fluorescent amount recovered from cells.

Another assay relates to HeLa. Kind of assay: Uptake of fluorescently labeled peptide-BSA conjugate (image analysis). It is filed as cell-based. As to conditions: HeLa comparative cell; compared with uptake into a HUVEC.
Assay [5] relates to normal human umbilical vein endothelial cell. Kind of assay: Uptake of peptide-modified liposome encapsulating doxorubicin into HUVEC (quantification analysis). The assay is classed as cell-based. The note with it: doxorubicin-encapsulated peptide-modified liposome, 6 hours. The procedure:
Hydrogenated soybean phosphatidyl choline (10 mg), cholesterol (3.4 mg),
distearoylphosphatidylethanolamine-polyethylene glycol 5000 (3.5 mg), and distearoylphosphatidylethanolamine-polyethylene glycol 5000-maleimide (3.1 mg) were dissolved in chloroform, and a solvent in a flask was removed using an evaporator to form a thin film. To this was added 1.7 mL of a 250 mM aqueous ammonium sulfate solution, followed by heating at 65° C. The resulting vesicle was adjusted in a particle size with an extruder using, subsequently, porous membranes of the pore sizes of 1.0 μm, 0.4 μm, and 0.2 μm. Into the prepared liposome having the particle diameter of about 200 nm was encapsulated doxorubicin by a remote loading method. After unencapsulated doxorubicin was removed with a column, peptides (SEQ ID Nos. 12, 13, 76 (partial sequence of SEQ ID No. 7), and 78) were added, respectively, at the ⅕ amount based on maleimide, and a liposome into which various peptides are introduced was prepared. Unreacted maleimide was inactivated by adding the 3-fold amount of 2-mercaptoethanol.
Regarding a 50 to 60% confluent normal human umbilical vein endothelial cell cultured in a 24-well plate, a medium was exchanged, and a doxorubicin-encapsulated peptide-modified liposome solution was added in the half amount of a medium. After 6 hours, cells were washed with a phosphate buffer, treated with trypsin, and cells were collected by a centrifugation procedure. To a cell pellet was added 50 μL of 10% Triton X-100 to dissolve cells and the doxorubicin-encapsulated peptide-modified liposome, 350 μL of isopropanol with 10% 0.75 M HCl added thereto was added, and this was allowed to stand overnight at −20° C. After a centrifugation procedure, the supernatant was analyzed with an ODS column, and doxorubicin taken in the cell was quantitated.

No end group written: not given here.

Regarding “EYDLSTAGGAAA [Sequence-77, reference compound]”, in the assay on HUVEC cells [1], the “Recovery of Peptide-BSA conjugate (%)” value was found to be 0.029%. For the same substance, the “Uptake of peptide-BSA conjugate into cell (confocal laser microscopic image)” value (shortened to “Uptake … (confocal laser microscopic image)”) in the assay on HUVEC cells [2] is on record as “no peptide in, a cell was observed”. Also, the “Intracellular Fluorescence (Score)” value in the assay with HUVEC cells [3] is 0. The “Recovery of Peptide-PEG conjugate (%)” value with HUVEC cells [4] was 0.020%.
On to GTQLFLIH [Sequence-16], for which the “Recovery of Peptide-BSA conjugate (%)” value in the assay with HUVEC cells [1] is on record as 0.227%. For the same substance, the “Uptake … (confocal laser microscopic image)” value is “many bright luminescent spots were observed in a cell” in the assay on HUVEC cells [2] and “an extremely small amount of peptides were observed in a cell” in the assay on HeLa. Moreover, the “Recovery of Peptide-PEG conjugate (%)” value with HUVEC cells [4] is 0.047%.
In the case of PFLPLYVP [Sequence-15], the “Intracellular Fluorescence (Score)” value in the assay on HUVEC cells [3] was 2.
For the substance PLALLTVH [Sequence-19], the “Intracellular Fluorescence (Score)” value with HUVEC cells [3] is recorded as 1.
PSPLALLT [Sequence-18]: the “Intracellular Fluorescence (Score)” value in the assay on HUVEC cells [3] is 1.
For the substance “SEQ ID No. 76: partial sequence of SEQ ID No. 7; sequence not printed in the text (VIPILSIYTA; Designed peptide acting as a vascular endothelial cell binding peptide)”, the “Amount of uptake of doxorubicin compared with random sequence (SEQ ID No. 78) liposome and liposome with no peptide” value in assay [5] is recorded as “remarkably increased”.
On to SLTVPFLP [Sequence-20], for which the “Intracellular Fluorescence (Score)” value with HUVEC cells [3] turned out to be 1.
In the case of “SLTVPFLPLYVP [Sequence-13, peptide presented by phage PhD clone3-30]”, in the assay on HUVEC cells [1], the “Recovery of Peptide-BSA conjugate (%)” value was 0.116%. In assay [5], the “Amount of uptake of doxorubicin compared with introduction of SEQ ID Nos. 12 and 76” value was “higher”; the “Amount of uptake of doxorubicin compared with random sequence (SEQ ID No. 78) liposome and liposome with no peptide” value is “remarkably increased”; the “Amount of uptake of doxorubicin relative to no peptide introduction” value is “about 3 fold”. In the assay on HUVEC cells [2], the “Uptake … (confocal laser microscopic image)” value is recorded as “many bright luminescent spots were observed in a cell”. The “Intracellular Fluorescence (Score)” value in the assay on HUVEC cells [3] stood at 2. For the same substance, in the assay on HUVEC cells [4], the “Recovery of Peptide-PEG conjugate (%)” value is reported as 0.122%. For the same substance, the “Uptake … (confocal laser microscopic image)” value in the assay with HeLa is given as “an extremely small amount of peptides were observed in a cell”.
As for TLPSPLAL [Sequence-17], the “Intracellular Fluorescence (Score)” value in the assay on HUVEC cells [3] is 1.
For the substance “TLPSPLALLTVH [Sequence-12, peptide presented by phage PhD clone1-14]”, the “Recovery of Peptide-BSA conjugate (%)” value with HUVEC cells [1] came to 0.127%. The “Amount of uptake of doxorubicin compared with random sequence (SEQ ID No. 78) liposome and liposome with no peptide” value in assay [5] was “remarkably increased”. Moreover, the figures for the “Uptake … (confocal laser microscopic image)” value with HUVEC cells [2] and in the assay on HeLa were “many bright luminescent spots were observed in a cell” and “an extremely small amount of peptides were observed in a cell”, respectively. In addition, the “Intracellular Fluorescence (Score)” value in the assay on HUVEC cells [3] came out at 3. Moreover, the “Recovery of Peptide-PEG conjugate (%)” value in the assay with HUVEC cells [4] is 0.211%.
Take TVPFLPLY [Sequence-21]: in the assay on HUVEC cells [3], the “Intracellular Fluorescence (Score)” value is 1.

The values are drawn from US20100184695A1, “VASCULAR ENDOTHELIAL CELL-BINDING PEPTIDE” (priority 2007, published 2010).
